Test results taken from ChEMBL document CHEMBL4304804, “Synthesis and biological evaluation of calycanthaceous alkaloid analogs” (Bioorg Med Chem, 2019).
Converted amounts (≈) assume the structure as drawn. The source made the active and inactive calls. No cut-off for these calls is given here.

Legend:
Cytospora = assay: Antifungal activity against Cytospora juglandis assessed as reduction in fungal cell growth incubated for 48 hrs by serial dilution method; type: functional
Acetylcholinesterase = Acetylcholinesterase (Electrophorus electricus, UniProt O42275); assay: Inhibition of electric eel AChE by Ellman's colorimetry
Candida tropicalis = assay: Antifungal activity against Candida tropicalis assessed as reduction in fungal cell growth incubated for 48 hrs by serial dilution method; type: functional
Verticillium dahliae = assay: Antifungal activity against Verticillium dahliae assessed as reduction in fungal cell growth incubated for 48 hrs by serial dilution method; type: functional
Ralstonia solanacearum = assay: Antibacterial activity against Ralstonia solanacearum assessed as reduction in bacterial cell growth incubated for 24 hrs by filter paper assay; type: functional
Bacillus cereus = assay: Antibacterial activity against Bacillus cereus assessed as reduction in bacterial cell growth incubated for 24 hrs by filter paper assay; type: functional
Candida = assay: Antifungal activity against […] assessed as reduction in fungal cell growth incubated for 48 hrs by serial dilution method; type: functional
Fusarium oxysporum = assay: Antifungal activity against Fusarium oxysporum assessed as reduction in fungal cell growth incubated for 48 hrs by serial dilution method; type: functional
Aspergillus flavus = assay: Antifungal activity against Aspergillus flavus assessed as reduction in fungal cell growth incubated for 48 hrs by serial dilution method; type: functional
Aspergillus niger = assay: Antifungal activity against Aspergillus niger assessed as reduction in fungal cell growth incubated for 48 hrs by serial dilution method; type: functional
Curvularia lunata = assay: Antifungal activity against Curvularia lunata assessed as reduction in fungal cell growth incubated for 48 hrs by serial dilution method; type: functional
Pseudomonas aeruginosa = assay: Antibacterial activity against Pseudomonas aeruginosa assessed as reduction in bacterial cell growth incubated for 24 hrs by filter paper assay; type: functional
[1] = test system: Colletotrichum orbiculare; assay: Antifungal activity against Colletotrichum orbiculare assessed as reduction in fungal cell growth incubated for 48 hrs by serial dilution method; type: functional
Penicillium citrinum = assay: Antifungal activity against Penicillium citrinum assessed as reduction in fungal cell growth incubated for 48 hrs by serial dilution method; type: functional
Staphylococcus aureus = assay: Antibacterial activity against Staphylococcus aureus assessed as reduction in bacterial cell growth incubated for 24 hrs by filter paper assay; type: functional
[2] = test system: Fusarium oxysporum f. sp. vasinfectum; assay: Antifungal activity against Fusarium oxysporum sp. vasinfectum assessed as reduction in fungal cell growth incubated for 48 hrs by serial dilution method; type: functional
Escherichia coli = assay: Antibacterial activity against Escherichia coli assessed as reduction in bacterial cell growth incubated for 24 hrs by filter paper assay; type: functional
Cryptococcus neoformans = assay: Antifungal activity against Cryptococcus neoformans assessed as reduction in fungal cell growth incubated for 48 hrs by serial dilution method; type: functional

Sequence of Acetylcholinesterase (O42275 whole entry): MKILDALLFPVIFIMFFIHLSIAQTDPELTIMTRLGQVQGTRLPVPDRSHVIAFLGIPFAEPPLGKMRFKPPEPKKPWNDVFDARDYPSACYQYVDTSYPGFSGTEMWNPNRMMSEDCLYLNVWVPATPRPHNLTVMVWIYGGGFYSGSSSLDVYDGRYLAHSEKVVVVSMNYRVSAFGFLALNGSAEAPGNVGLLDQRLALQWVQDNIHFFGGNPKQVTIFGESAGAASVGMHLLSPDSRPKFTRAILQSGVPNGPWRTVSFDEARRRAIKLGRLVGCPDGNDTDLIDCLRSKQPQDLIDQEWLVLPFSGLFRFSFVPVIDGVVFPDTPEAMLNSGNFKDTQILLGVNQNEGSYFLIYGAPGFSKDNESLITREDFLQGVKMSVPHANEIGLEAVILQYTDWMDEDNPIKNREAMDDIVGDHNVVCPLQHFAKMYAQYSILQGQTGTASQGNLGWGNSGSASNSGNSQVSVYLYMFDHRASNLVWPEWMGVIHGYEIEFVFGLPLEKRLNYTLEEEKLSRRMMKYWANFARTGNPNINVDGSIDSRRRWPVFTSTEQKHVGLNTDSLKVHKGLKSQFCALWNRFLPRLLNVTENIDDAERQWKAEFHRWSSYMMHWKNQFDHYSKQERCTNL

Row | Structure (SMILES) | MIC (Cytospora) | IC50 (Acetylcholinesterase) | MIC (Candida tropicalis) | MIC (Verticillium dahliae) | MIC (Ralstonia solanacearum) | MIC (Bacillus cereus) | MIC (Candida) | MIC (Fusarium oxysporum) | MIC (Aspergillus flavus) | MIC (Aspergillus niger) | MIC (Curvularia lunata) | MIC (Pseudomonas aeruginosa) | MIC [1] | MIC (Penicillium citrinum) | MIC (Staphylococcus aureus) | MIC [2] | MIC (Escherichia coli) | MIC (Cryptococcus neoformans)
1 | Cc1cccc(CN2c3ccccc3C3(Cc4cccc(C)c4)CCN(C(=O)COc4ccccc4)C23)c1 (centres undefined) | 125 µg/mL (≈ 249 µM) | 6.25 µM | 125 µg/mL (≈ 249 µM) | 250 µg/mL (≈ 497 µM) | inactive | 250 µg/mL (≈ 497 µM) | 250 µg/mL (≈ 497 µM) | 250 µg/mL (≈ 497 µM) | 250 µg/mL (≈ 497 µM) | 250 µg/mL (≈ 497 µM) | inactive | inactive | 250 µg/mL (≈ 497 µM) | 250 µg/mL (≈ 497 µM) | inactive | 250 µg/mL (≈ 497 µM) | inactive | inactive
2 | Cc1cccc(C(=O)N2CCCC3(O)c4ccccc4N(C)C23)c1 (centres undefined) | inactive | 5.52 µM | 250 µg/mL (≈ 775 µM) | 250 µg/mL (≈ 775 µM) | 62.5 µg/mL (≈ 194 µM) | inactive | inactive | inactive | inactive | inactive | inactive | 250 µg/mL (≈ 775 µM) | inactive | inactive | 250 µg/mL (≈ 775 µM) | inactive | inactive | inactive
3 | Cc1cccc(CN2c3ccccc3C3(Cc4cccc(C)c4)CCN(C(=O)c4ccccc4C)C23)c1 (centres undefined) | 125 µg/mL (≈ 257 µM) | 112 µM | 250 µg/mL (≈ 514 µM) | 7.81 µg/mL (≈ 16 µM) | 125 µg/mL (≈ 257 µM) | 125 µg/mL (≈ 257 µM) | 250 µg/mL (≈ 514 µM) | 125 µg/mL (≈ 257 µM) | 250 µg/mL (≈ 514 µM) | 250 µg/mL (≈ 514 µM) | 62.5 µg/mL (≈ 128 µM) | inactive | 250 µg/mL (≈ 514 µM) | inactive | inactive | 125 µg/mL (≈ 257 µM) | inactive | inactive
4 | CCCC(=O)N1CCCC2(O)c3ccccc3N(C)C12 (centres undefined) | inactive | 122 µM | inactive | 250 µg/mL (≈ 911 µM) | 31.2 µg/mL (≈ 114 µM) | inactive | inactive | inactive | inactive | inactive | inactive | 250 µg/mL (≈ 911 µM) | inactive | inactive | inactive | inactive | inactive | inactive
5 | Cc1cccc(CN2c3ccccc3C3(Cc4cccc(C)c4)CCN(C(=O)Cc4ccccc4)C23)c1 (centres undefined) | 250 µg/mL (≈ 514 µM) | 453 µM | inactive | 250 µg/mL (≈ 514 µM) | inactive | inactive | inactive | 250 µg/mL (≈ 514 µM) | 250 µg/mL (≈ 514 µM) | 250 µg/mL (≈ 514 µM) | inactive | inactive | inactive | 250 µg/mL (≈ 514 µM) | inactive | 125 µg/mL (≈ 257 µM) | inactive | inactive
6 | CCCCC(=O)N1CCCC2(O)c3ccccc3N(C)C12 (centres undefined) | inactive | 27.4 µM | inactive | 250 µg/mL (≈ 867 µM) | 62.5 µg/mL (≈ 217 µM) | inactive | inactive | inactive | inactive | inactive | inactive | 250 µg/mL (≈ 867 µM) | inactive | inactive | 125 µg/mL (≈ 433 µM) | inactive | 250 µg/mL (≈ 867 µM) | inactive
7 | Cc1cccc(CN2c3ccccc3C3(Cc4cccc(C)c4)CCN(C(=O)CCc4ccccc4)C23)c1 (centres undefined) | 250 µg/mL (≈ 499 µM) | 0.00399 µM | inactive | inactive | inactive | inactive | inactive | 250 µg/mL (≈ 499 µM) | 250 µg/mL (≈ 499 µM) | inactive | inactive | inactive | inactive | inactive | inactive | 62.5 µg/mL (≈ 125 µM) | inactive | inactive
8 | CN1c2ccccc2C2(O)CCCN(C(=O)c3ccccc3F)C12 (centres undefined) | inactive | 0.98 µM | inactive | 125 µg/mL (≈ 383 µM) | 125 µg/mL (≈ 383 µM) | inactive | inactive | inactive | inactive | inactive | inactive | 250 µg/mL (≈ 766 µM) | inactive | inactive | inactive | inactive | 250 µg/mL (≈ 766 µM) | inactive
